Experimental data published in USRE40086E1, “Method for treating bacterial infection with novel 7-substituted-9-substituted amino 6-demethyl-6-deoxytetracyclines” (Wyeth Holdings Corporation, priority 1991, dated 2008).
In brackets after ≈: the same amount, converted by molar mass.

Assays:
Assay in all cases: MIC, agar dilution
Type in all cases: cell-based
[1] = test system: S. aureus UBMS 88-5 (tetM); conditions: S. aureus UBMS 88-5 (tetM)
[2] = test system: S. aureus UBMS 88-4 (Sensitive); conditions: S. aureus UBMS 88-4 (Sensitive)
[3] = test system: S. aureus UBMS 90-1 (tetM); conditions: S. aureus UBMS 90-1 (tetM)
[4] = test system: S. aureus UBMS 90-2 (tetM); conditions: S. aureus UBMS 90-2 (tetM)
[5] = test system: S. aureus UBMS 90-3 (Sensitive); conditions: S. aureus UBMS 90-3 (Sensitive)
[6] = test system: S. aureus UBMS 88-7 (tetK); conditions: S. aureus UBMS 88-7 (tetK)
[7] = test system: S. aureus IVES 2943 (meth. resistant); conditions: S. aureus IVES 2943 (meth. resistant)
[8] = test system: S. aureus IVES 1983 (meth. resistant); conditions: S. aureus IVES 1983 (meth. resistant)
[9] = test system: S. aureus ATCC 29213 (Sensitive); conditions: S. aureus ATCC 29213 (Sensitive)
[10] = test system: S. aureus Smith (Sensitive); conditions: S. aureus Smith (Sensitive)
[11] = test system: S. haemolyticus AVAH 88-3; conditions: S. haemolyticus AVAH 88-3
E. faecalis 12201 = conditions: E. faecalis 12201
E. faecalis ATCC 29212 = conditions: E. faecalis ATCC 29212
E. coli UBMS 88-1 (tetB) = conditions: E. coli UBMS 88-1 (tetB)
[12] = test system: E. coli UBMS 88-2 (Sensitive); conditions: E. coli UBMS 88-2 (Sensitive)
E. coli UBMS 89-1 (tetM) = conditions: E. coli UBMS 89-1 (tetM)
[13] = test system: E. coli UBMS 89-2 (Sensitive); conditions: E. coli UBMS 89-2 (Sensitive)
E. coli ATCC 25922 = conditions: E. coli ATCC 25922

## CN(C)c1cc(N(C)C)c2c(c1O)C(=O)C1=C(O)C3(O)C(=O)C(C(N)=O)=C(O)C(N(C)C)C3CC1C2 (stereo not drawn) [C, 7-(Dimethylamino)-9-(dimethylamino)-6-demethyl-6-deoxytetracycline]
[1]
  MIC: 0.12 µg/mL (≈ 0.24 µM)
[2]
  MIC: 0.03 µg/mL (≈ 0.0599 µM)
[3]
  MIC: 0.5 µg/mL (≈ 0.999 µM)
[4]
  MIC: 0.12 µg/mL (≈ 0.24 µM)
[5]
  MIC: 0.03 µg/mL (≈ 0.0599 µM)
[6]
  MIC: 0.25 µg/mL (≈ 0.499 µM)
[7]
  MIC: 1 µg/mL (≈ 2 µM)
[8]
  MIC: 1 µg/mL (≈ 2 µM)
[9]
  MIC: ≦0.015 μg/ml
[10]
  MIC: 0.03 µg/mL (≈ 0.0599 µM)
[11]
  MIC: 0.12 µg/mL (≈ 0.24 µM)
E. faecalis 12201
  MIC: 0.5 µg/mL (≈ 0.999 µM)
E. faecalis ATCC 29212
  MIC: 0.06 µg/mL (≈ 0.12 µM)
E. coli UBMS 88-1 (tetB)
  MIC: 16 µg/mL (≈ 32 µM)
[12]
  MIC: 0.25 µg/mL (≈ 0.499 µM)
E. coli UBMS 89-1 (tetM)
  MIC: 1 µg/mL (≈ 2 µM)
[13]
  MIC: 0.5 µg/mL (≈ 0.999 µM)
E. coli ATCC 25922
  MIC: 0.25 µg/mL (≈ 0.499 µM)

## CCN(CC)c1cc(NC(C)=O)c(O)c2c1C[C@H]1C[C@H]3[C@H](N(C)C)C(O)=C(C(N)=O)C(=O)[C@@]3(O)C(O)=C1C2=O.O=S(=O)(O)O.O=S(=O)(O)O [Compound E, 9-(Acetylamino)-7-(diethylamino)-6-demethyl-6-deoxytetracycline disulfate]
[1]
  MIC: 4 µg/mL
[2]
  MIC: 0.5 µg/mL
[3]
  MIC: 8 µg/mL
[4]
  MIC: 2 µg/mL
[5]
  MIC: 0.5 µg/mL
[6]
  MIC: 4 µg/mL
[7]
  MIC: 8 µg/mL
[8]
  MIC: 16 µg/mL
[9]
  MIC: ≦0.015 μg/ml
[10]
  MIC: 0.5 µg/mL
[11]
  MIC: 8 µg/mL
E. faecalis 12201
  MIC: 16 µg/mL
E. faecalis ATCC 29212
  MIC: 2.0 µg/mL
E. coli UBMS 88-1 (tetB)
  MIC: >32 µg/mL
[12]
  MIC: >32 µg/mL
E. coli UBMS 89-1 (tetM)
  MIC: 32 µg/mL
[13]
  MIC: >32 µg/mL
E. coli ATCC 25922
  MIC: 32 µg/mL

## CCN(CC)c1cc(NC(C)=O)c(O)c2c1CC1CC3C(N(C)C)C(O)=C(C(N)=O)C(=O)C3(O)C(O)=C1C2=O (stereo not drawn) [F, 9-(Acetylamino)-7-(diethylamino)-6-demethyl-6-deoxytetracycline]
[1]
  MIC: 0.5 µg/mL (≈ 0.922 µM)
[2]
  MIC: 0.25 µg/mL (≈ 0.461 µM)
[3]
  MIC: 2 µg/mL (≈ 3.69 µM)
[4]
  MIC: 0.5 µg/mL (≈ 0.922 µM)
[5]
  MIC: 0.12 µg/mL (≈ 0.221 µM)
[6]
  MIC: 2 µg/mL (≈ 3.69 µM)
[7]
  MIC: 2 µg/mL (≈ 3.69 µM)
[8]
  MIC: 4 µg/mL (≈ 7.37 µM)
[9]
  MIC: ≦0.015 μg/ml
[10]
  MIC: 0.12 µg/mL (≈ 0.221 µM)
[11]
  MIC: 2 µg/mL (≈ 3.69 µM)
E. faecalis 12201
  MIC: 4 µg/mL (≈ 7.37 µM)
E. faecalis ATCC 29212
  MIC: 0.25 µg/mL (≈ 0.461 µM)
E. coli UBMS 88-1 (tetB)
  MIC: >32 µg/mL
[12]
  MIC: 32 µg/mL (≈ 59 µM)
E. coli UBMS 89-1 (tetM)
  MIC: 4 µg/mL (≈ 7.37 µM)
[13]
  MIC: 32 µg/mL (≈ 59 µM)
E. coli ATCC 25922
  MIC: 4 µg/mL (≈ 7.37 µM)

## CN(C)c1cc(NC(=O)COCc2ccccc2)c(O)c2c1CC1CC3C(N(C)C)C(O)=C(C(N)=O)C(=O)C3(O)C(O)=C1C2=O (stereo not drawn) [J, 7-(Dimethylamino)-9-([(phenylmethoxy)acetyl)amino]-6-demethyl-6-deoxytetracycline]
[1]
  MIC: 4 µg/mL (≈ 6.44 µM)
[2]
  MIC: 2 µg/mL (≈ 3.22 µM)
[3]
  MIC: 4 µg/mL (≈ 6.44 µM)
[4]
  MIC: 2 µg/mL (≈ 3.22 µM)
[5]
  MIC: 0.5 µg/mL (≈ 0.806 µM)
[6]
  MIC: 2 µg/mL (≈ 3.22 µM)
[7]
  MIC: 4 µg/mL (≈ 6.44 µM)
[8]
  MIC: 4 µg/mL (≈ 6.44 µM)
[9]
  MIC: 0.06 µg/mL (≈ 0.0967 µM)
[10]
  MIC: 0.5 µg/mL (≈ 0.806 µM)
[11]
  MIC: 4 µg/mL (≈ 6.44 µM)
E. faecalis 12201
  MIC: 2 µg/mL (≈ 3.22 µM)
E. faecalis ATCC 29212
  MIC: 4 µg/mL (≈ 6.44 µM)
E. coli UBMS 88-1 (tetB)
  MIC: >32 µg/mL
[12]
  MIC: >32 µg/mL
E. coli UBMS 89-1 (tetM)
  MIC: >32 µg/mL
[13]
  MIC: >32 µg/mL
E. coli ATCC 25922
  MIC: 32 µg/mL (≈ 51.6 µM)

## CC(=O)OCC(=O)Nc1cc(N(C)C)c2c(c1O)C(=O)C1=C(O)[C@]3(O)C(=O)C(C(N)=O)=C(O)[C@@H](N(C)C)[C@@H]3C[C@@H]1C2 [K, 9-[[(Acetyloxy)acetyl]amino)-7-(dimethylamino)-6-demethyl-6-deoxytetracycline]
[1]
  MIC: 0.25 µg/mL (≈ 0.437 µM)
[2]
  MIC: 0.12 µg/mL (≈ 0.21 µM)
[3]
  MIC: 0.25 µg/mL (≈ 0.437 µM)
[4]
  MIC: 0.06 µg/mL (≈ 0.105 µM)
[5]
  MIC: 0.03 µg/mL (≈ 0.0524 µM)
[6]
  MIC: 32 µg/mL (≈ 55.9 µM)
[7]
  MIC: 32 µg/mL (≈ 55.9 µM)
[8]
  MIC: 32 µg/mL (≈ 55.9 µM)
[9]
  MIC: ≦0.015 μg/ml
[10]
  MIC: ≦0.015 μg/ml
[11]
  MIC: 0.5 µg/mL (≈ 0.873 µM)
E. faecalis 12201
  MIC: 0.25 µg/mL (≈ 0.437 µM)
E. faecalis ATCC 29212
  MIC: 0.06 µg/mL (≈ 0.105 µM)
E. coli UBMS 88-1 (tetB)
  MIC: 16 µg/mL (≈ 27.9 µM)
[12]
  MIC: 4 µg/mL (≈ 6.99 µM)
E. coli UBMS 89-1 (tetM)
  MIC: 1 µg/mL (≈ 1.75 µM)
[13]
  MIC: 8 µg/mL (≈ 14 µM)
E. coli ATCC 25922
  MIC: 4 µg/mL (≈ 6.99 µM)
